Data as given in paper PMC8205225, “Structural Basis of Metallo-β-lactamase Inhibition by N-Sulfamoylpyrrole-2-carboxylates” (ACS Infectious Diseases, 2021).
Read-outs that look alike come from different tables or passages of the source.

Experiments:
IMP-1 [1] = target: T1, IMP-1 (Serratia marcescens, UniProt P52699); test: fluorogenic cephalosporin FC5 MBL inhibition assay, IMP-1; format: biochemical; settings: FC5 5 μM, enzyme 20 pM, quadruplicate; read-out: pIC50 IMP-1 (converted)
T1 construct: made in house
Description: (§1) The NSPCs were screened against four of the currently most clinically relevant B1 MBLs, i.e. VIM-1, VIM-2, NDM-1, and IMP-1 (Table 1), using an assay employing the “fluorogenic” cephalosporin FC5.[40]
(§2) The inhibitory activity of NSPCs 6, 8-14 against representative B1 subfamily MBLs [obtained according to previously reported production and purification procedures: VIM-1,5 VIM-2, NDM-1 and IMP-16] was determined using a fluorogenic assay monitoring the enzymatic breakdown of the cephalosporin probe FC5.6 The FC5/meropenem assays were conducted at room temperature in clear-bottomed Greiner 384 black well microplates (FC5) or Greiner 96 well UV star microplates (meropenem), using a ClarioStar or PHERAstar FS microplate reader (BMG LabTech). Representative β-lactamases were tested at the following concentrations:
(§3) VIM-1, 100 pM; NDM-1, 20 pM; IMP-1, 20 pM; and VIM-2, 500 pM. The concentration of FC5 employed was 5 μM for all enzymes. IMP-1, VIM-1, VIM-2 and NDM-1 inhibition assays were screened in “MBL buffer” (50 mM HEPES, pH 7.2, 1 μM ZnSO4, 1 μg mL−1 BSA, 0.01% v/v Triton X-100). The initial rates of reaction (measured after 10 min pre-incubation of the NSPC with the enzyme) were assessed by monitoring the fluorescence intensity at λex = 380 nm and λem = 460 nm. Following the determination of initial rates of reaction, the data were fitted using a four-parameter function: log (inhibitor) vs. response, variable slope in GraphPad Prism 6 to obtain IC50 values.6, 7

NDM-1 [2] = target: T2, NDM-1 (Klebsiella pneumoniae, UniProt C7C422); test: fluorogenic cephalosporin FC5 MBL inhibition assay, NDM-1; format: biochemical; settings: for IC50: FC5 5 μM, enzyme 20 pM, quadruplicate, read-out: pIC50 NDM-1 (converted); for activity (IC50) for inhibition of NDM-1, in words: FC5 assay
T2 construct: made in house
Description: as §1, §2, §3

VIM-1 [3] = target: T3, VIM-1 (Pseudomonas aeruginosa, UniProt A0A0F7KYQ8); test: fluorogenic cephalosporin FC5 MBL inhibition assay, VIM-1; format: biochemical; settings: FC5 5 μM, enzyme 100 pM, quadruplicate; for IC50: read-out: pIC50 VIM-1 (converted)
T3 construct: made in house
Description: as §1, §2, §3

VIM-2 [4] = target: T4, VIM-2 (Escherichia coli, UniProt Q5U7L7); test: fluorogenic cephalosporin FC5 MBL inhibition assay, VIM-2; format: biochemical; settings: FC5 5 μM, enzyme 500 pM, quadruplicate; read-out: pIC50 VIM-2 (converted)
T4 construct: made in house
Description: as §1, §2, §3

NDM-1 [5] = target: T2, NDM-1; settings: determined using 100 μM nitrocefin; cited from earlier work
IMP-1 [6] = target: T1, IMP-1; settings: determined using 100 μM nitrocefin; cited from earlier work
VIM-2 [7] = target: T4, VIM-2; settings: determined using 100 μM nitrocefin; cited from earlier work
IMP-1 [8] = target: T1, IMP-1; design: method as in PMID 32184250; settings: determined by measuring hydrolysis of imipenem; cited from earlier work
NDM-1 [9] = target: T2, NDM-1; design: method as in PMID 32184250; settings: determined by measuring hydrolysis of imipenem; cited from earlier work
VIM-2 [10] = target: T4, VIM-2; design: method as in PMID 32184250; settings: determined by measuring hydrolysis of imipenem; cited from earlier work
[11] = test system: K. pneumoniae IR43 blaNDM-1; design: method as in PMID 31454231; settings: strain IR43, VNRX at 10 μg mL^–1 (printed in the [I] 8 row); cited from earlier work
VIM-1 [12] = target: T3, VIM-1; settings: cited from earlier work
VIM-2 [13] = target: T4, VIM-2; settings: cited from earlier work
[14] = test system: K. pneumoniae B68-1 blaNDM-1; design: method as in PMID 31454231; settings: strain B68-1, VNRX at 10 μg mL^–1 (printed in the [I] 8 row); cited from earlier work
IMP-1 [15] = target: T1, IMP-1; settings: cited from earlier work
E. coli IR57 blaNDM-1 = test system: E. coli IR57 blaNDM-1; design: method as in PMID 31454231; settings: strain IR57, VNRX at 10 μg mL^–1 (printed in the [I] 8 row); cited from earlier work
E. coli S117 blaNDM-1 = test system: E. coli S117 blaNDM-1; design: method as in PMID 31454231; settings: strain S117, VNRX at 10 μg mL^–1 (printed in the [I] 8 row); cited from earlier work

T1 sequence (P52699 19-246, looked up, species assumed): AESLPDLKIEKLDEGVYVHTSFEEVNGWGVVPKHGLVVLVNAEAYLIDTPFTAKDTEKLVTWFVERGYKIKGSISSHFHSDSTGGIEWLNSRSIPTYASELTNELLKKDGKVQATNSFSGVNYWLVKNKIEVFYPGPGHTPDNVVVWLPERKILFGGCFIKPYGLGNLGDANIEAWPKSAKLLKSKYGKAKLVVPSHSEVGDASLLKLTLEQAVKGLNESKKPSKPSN
T2 sequence (C7C422 29-270, looked up, species assumed): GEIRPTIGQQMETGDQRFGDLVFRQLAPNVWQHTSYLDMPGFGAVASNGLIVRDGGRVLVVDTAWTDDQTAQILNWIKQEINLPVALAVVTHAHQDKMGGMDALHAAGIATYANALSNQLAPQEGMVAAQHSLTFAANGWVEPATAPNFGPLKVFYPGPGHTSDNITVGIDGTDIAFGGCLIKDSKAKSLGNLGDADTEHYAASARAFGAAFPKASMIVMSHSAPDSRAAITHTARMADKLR

| SMILES | IC50 (IMP-1 [1]) | IC50 (NDM-1 [2]) | IC50 (VIM-1 [3]) | IC50 (VIM-2 [4]) | also measured |
| --- | --- | --- | --- | --- | --- |
| NS(=O)(=O)n1ccc(-c2ccc(C3CCNCC3)cc2)c1C(=O)O [AMRC276] | – | – | – | – | pIC50 NDM-1 (NDM-1 [5]): 6.8[22]; pIC50 IMP-1 (IMP-1 [6]): 7.4[22]; pIC50 VIM-2 (VIM-2 [7]): 4.2[22] |
| NS(=O)(=O)n1ccc(-c2ccc(=O)[nH]c2)c1C(=O)O [AMRC364] | – | – | – | – | pIC50 NDM-1 (NDM-1 [5]): 5.6[22]; pIC50 IMP-1 (IMP-1 [6]): 5.7[22]; pIC50 VIM-2 (VIM-2 [7]): 4.4[22] |
| CS(=O)(=O)c1ccc(-c2ccn(S(N)(=O)=O)c2C(=O)O)cc1 [AMRC439] | – | – | – | – | pIC50 NDM-1 (NDM-1 [5]): 6.4[22]; pIC50 IMP-1 (IMP-1 [6]): 6.3[22]; pIC50 VIM-2 (VIM-2 [7]): 4.3[22] |
| CCc1c(C(=O)O)c(S(N)(=O)=O)c(CC)n1C [SPC] | – | – | – | – | pIC50 IMP-1 (IMP-1 [8]): 6.6[21]; pIC50 NDM-1 (NDM-1 [9]): 6.0[21]; pIC50 VIM-2 (VIM-2 [10]): 7.7[21] |
| Nc1ccc(-c2ccn(S(N)(=O)=O)c2C(=O)[O-])cn1.[Na+] [compound 9] | 1 nM | 12.6 nM | 316 nM | 200 nM | pIC50 NDM-1 (NDM-1 [5]): 6.1[22]; pIC50 IMP-1 (IMP-1 [6]): 6.4[22]; pIC50 VIM-2 (VIM-2 [7]): 4.5[22] |
| N=C1NCC(c2ccn(S(N)(=O)=O)c2C(=O)O)CN1 (centres unmarked) [compound 12] | 50.1 nM | 316 nM | 3.16 nM | 12.6 nM | – |
| NS(=O)(=O)n1ccc(-c2ccc(N3CCOCC3)cc2)c1C(=O)O [compound 13] | < 0.631 nM | 1.58 nM | 251 nM | 158 nM | activity (IC50) for inhibition of NDM-1, in words (NDM-1 [2]): nanomolar potency |
| NCCN[C@H]1CC[C@H](CC(=O)N[C@H]2Cc3cccc(C(=O)O)c3OB2O)CC1 [taniborbactam] | – | – | – | – | MIC of MEM in combination with VNRX [11]: 0.25 μg mL^–1; pIC50 VIM-1 (VIM-1 [12]): 8.1[41]; pIC50 VIM-2 (VIM-2 [13]): 8.3[41]; MIC of MEM in combination with VNRX [14]: 0.5 μg mL^–1; pIC50 IMP-1 (IMP-1 [15]): 5.6[41]; MIC of MEM in combination with VNRX (E. coli IR57 blaNDM-1): 0.5 μg mL^–1; MIC of MEM in combination with VNRX (E. coli S117 blaNDM-1): 1 μg mL^–1 |

Now from value to compound, other results behind:

| IC50 (IMP-1 [1]) | IC50 (NDM-1 [2]) | IC50 (VIM-1 [3]) | IC50 (VIM-2 [4]) | SMILES | also measured |
| --- | --- | --- | --- | --- | --- |
| 0.631 nM | 7.94 nM | 126 nM | 20 nM | NS(=O)(=O)n1ccc(-c2ccc(F)cc2)c1C(=O)O [6a, 3-(4-Fluorophenyl)-1-sulfamoyl-1H-pyrrole-2-carboxylic acid] | activity (IC50) for inhibition of NDM-1, in words (NDM-1 [2]): nanomolar potency |
| 1.26 nM | 6.31 nM | – | 31.6 nM | NS(=O)(=O)n1ccc(-c2ccc(F)cc2)c1C(=O)[O-].[Na+] [6b] | activity (IC50) for inhibition of NDM-1, in words (NDM-1 [2]): nanomolar potency; pIC50 VIM-1 (VIM-1 [3]): 6.9 |
| 2.51 nM | 12.6 nM | 79.4 nM | 158 nM | NC(=O)c1ccc(-c2ccn(S(N)(=O)=O)c2C(=O)O)cc1 [compound 8] | – |
| 1.26 nM | 7.94 nM | 79.4 nM | 15.8 nM | NS(=O)(=O)n1ccc(-c2cn[nH]c2)c1C(=O)O [compound 10] | activity (IC50) for inhibition of NDM-1, in words (NDM-1 [2]): nanomolar potency |
| 6.31 nM | 12.6 nM | 39.8 nM | 50.1 nM | Nc1ncc(-c2ccn(S(N)(=O)=O)c2C(=O)O)cn1 [compound 11] | – |
| 5.01 nM | 12.6 nM | 39.8 nM | 6.31 nM | Nc1nc2ccc(-c3ccn(S(N)(=O)=O)c3C(=O)O)cn2n1 [compound 14, 3-(2-Amino-[1,2,4]triazolo[1,5-a]pyridin-6-yl)-1-sulfamoyl-1H-pyrrole-2-carboxylic acid] | – |
